The record followed here is patent US10829520B2, “Beta-hairpin peptidomimetics” (POLYPHOR AG, priority 2015, dated 2020).

Where a SMILES comes first, the peptide text is derived from it. Bridges are numbered along the chain shown (N, C = ends). [ ]: non-standard residue; d: D form. Dab = NCC[C@H](N)C(=O)O

Common to all, as to assay type: cell-based
The test system of series [1] is Escherichia coli ATCC 25922. The conditions noted are these: ATCC 25922. An outline of the steps:
(§1)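 Antibacterial activity is measured as MIC (μg/mL) by standard CLSI microdilution. Inocula of about 10^6 CFU/mL in MH-II broth meet two-fold peptide dilutions in medium with 0.002% Polysorbate 80, and growth is scored visually after 18-20 hours at 35° C.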

For series [2], the system named is Pseudomonas aeruginosa ATCC 27853. To be noted: ATCC 27853. Put shortly: as §1
Series [3] deals with Acinetobacter baumannii 872842. The conditions noted are these: 872842.
The subject of a further series is Escherichia coli 926415. To be noted: 926415.
Series [4] concerns Acinetobacter baumannii DSM 30008. The conditions noted are these: DSM 30008. An outline of the steps: as §1
Series [5] has as its system Klebsiella pneumoniae 968733. The conditions noted are these: 968733.
In series [6] the test system is Klebsiella pneumoniae SSI #3010. To be noted: SSI #3010. An outline of the steps:
as §1

Series [7] concerns human red blood cells (hRBC). As to the kind of experiment: Hemolysis of human red blood cells. The conditions noted are these: red cells of human, 1 h, 100 μg/mL. An outline of the steps: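 Percent hemolysis = OD540 of peptide-treated supernatant relative to the 2.5% Triton X-100 (100%) control, PBS containing 0.001% acetic acid defining 0%. Peptides tested at 100 μg/mL against 20% (v/v) washed human RBC, 1 h, 37 °C, 300 rpm.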

Consider `CC(C)C[C@@H]1NC(=O)[C@H](C)NC(=O)[C@H]2CCCN2C(=O)[C@H](CO)NC(=O)[C@H](C)NC(=O)[C@H](C(C)C)NC(=O)[C@@H](NC(=O)[C@@H](N)Cc2c[nH]c3ccccc23)CSSC[C@@H](C(=O)N[C@@H](CCN)C(=O)N[C@@H](CCN)C(=O)N[C@H](C(=O)N[C@@H](CCN)C(=O)N[C@H]2CCNC(=O)[C@H]([C@@H](C)O)NC(=O)[C@H](CCN)NC(=O)[C@H](CCN)NC(=O)[C@H](CC(C)C)NC(=O)[C@@H](CC(C)C)NC(=O)[C@H](CCN)NC2=O)[C@@H](C)O)NC(=O)[C@H](Cc2ccc(O)cc2)NC(=O)[C@H](CO)NC1=O` [Ex. 125] (H-WCVAS[dP]ALSYC[Dab][Dab]T[Dab][Dab][Dab][dL]L[Dab][Dab]T; disulfide 2-11; lactam 16-C), for which the “Escherichia coli ATCC 25922 MIC” value in series [1] was determined as 0.0625 µg/mL. In addition, in series [2], the “Pseudomonas aeruginosa ATCC 27853 MIC” value is 0.5 µg/mL. In series [3], the “Acinetobacter baumannii 872842 MIC” value came to 0.0625 µg/mL. Also, the “Escherichia coli 926415 MIC” value with Escherichia coli 926415 was found to be 0.25 µg/mL. For the same compound, the “Acinetobacter baumannii DSM 30008 MIC” value in series [4] worked out at 0.125 µg/mL. In addition, in series [5], the “Klebsiella pneumoniae 968733 MIC” value is 1 µg/mL. For the same compound, the “Klebsiella pneumoniae SSI #3010 MIC” value in series [6] stood at 0.125 µg/mL. In series [7], the “Hemolysis at 100 μg/mL” value came out at 1%.

As to `CC(C)C[C@@H]1NC(=O)[C@H]([C@@H](C)O)NC(=O)[C@H]2CCCN2C(=O)[C@H](CO)NC(=O)[C@H](C)NC(=O)[C@H](C(C)C)NC(=O)[C@@H](NC(=O)[C@@H](N)Cc2c[nH]c3ccccc23)CSSC[C@@H](C(=O)NCC(=O)N[C@@H](CCN)C(=O)N[C@H](C(=O)N[C@@H](CCN)C(=O)N[C@H]2CCNC(=O)[C@H]([C@@H](C)O)NC(=O)[C@H](CCN)NC(=O)[C@H](CCN)NC(=O)[C@H](CC(C)C)NC(=O)[C@@H](CC(C)C)NC(=O)[C@H](CCN)NC2=O)[C@@H](C)O)NC(=O)[C@H](Cc2ccc(O)cc2)NC(=O)[C@H](CO)NC1=O` [Ex. 126] (H-WCVAS[dP]TLSYCG[Dab]T[Dab][Dab][Dab][dL]L[Dab][Dab]T; disulfide 2-11; lactam 16-C), the “Escherichia coli ATCC 25922 MIC” value in series [1] amounted to 0.0625 µg/mL. Besides, the “Pseudomonas aeruginosa ATCC 27853 MIC” value in series [2] was 0.5 µg/mL. For the same compound, in series [3], the “Acinetobacter baumannii 872842 MIC” value worked out at 0.125 µg/mL. In the series on Escherichia coli 926415, the “Escherichia coli 926415 MIC” value came out at 0.5 µg/mL. For the same compound, in series [4], the “Acinetobacter baumannii DSM 30008 MIC” value is 0.0625 µg/mL. For the same compound, in series [5], the “Klebsiella pneumoniae 968733 MIC” value amounted to 0.5 µg/mL. Besides, in series [6], the “Klebsiella pneumoniae SSI #3010 MIC” value came out at 0.0625 µg/mL. For the same compound, the “Hemolysis at 100 μg/mL” value in series [7] was found to be 1%.

In the case of `CC(C)C[C@@H]1NC(=O)[C@H](CCN)NC(=O)[C@H]2CCCN2C(=O)[C@H](CO)NC(=O)[C@H](C)NC(=O)[C@H](C(C)C)NC(=O)[C@@H](NC(=O)[C@@H](N)Cc2c[nH]c3ccccc23)CSSC[C@@H](C(=O)N[C@@H](CCN)C(=O)N[C@@H](CCN)C(=O)N[C@H](C(=O)N[C@@H](CCN)C(=O)N[C@H]2CCNC(=O)[C@H]([C@@H](C)O)NC(=O)[C@H](CCN)NC(=O)[C@H](CCN)NC(=O)[C@H](CC(C)C)NC(=O)[C@@H](CC(C)C)NC(=O)[C@H](CCN)NC2=O)[C@@H](C)O)NC(=O)[C@H](Cc2ccc(O)cc2)NC(=O)[C@H](CO)NC1=O` [Ex. 127] (H-WCVAS[dP][Dab]LSYC[Dab][Dab]T[Dab][Dab][Dab][dL]L[Dab][Dab]T; disulfide 2-11; lactam 16-C), in series [1], the “Escherichia coli ATCC 25922 MIC” value amounted to 1 µg/mL. Besides, the “Pseudomonas aeruginosa ATCC 27853 MIC” value in series [2] is 0.5 µg/mL. In addition, the “Acinetobacter baumannii 872842 MIC” value in series [3] came to 0.25 µg/mL. Besides, the “Escherichia coli 926415 MIC” value in the series with Escherichia coli 926415 is 2 µg/mL. Besides, in series [4], the “Acinetobacter baumannii DSM 30008 MIC” value stood at 0.25 µg/mL. Further, the “Klebsiella pneumoniae 968733 MIC” value in series [5] stood at 8 µg/mL. Also, the “Klebsiella pneumoniae SSI #3010 MIC” value in series [6] was determined as 0.25 µg/mL. Also, in series [7], the “Hemolysis at 100 μg/mL” value was found to be 1%.
